Read-outs that look alike come from different tables or passages of the source. Numbered stars: 1 amine (or outer) side, 2 acyl side, 3 side chain; on linkers, the order of the positions; unused ones are H or OH. Bridge positions count the residues as written; N and C are the ends. Side chains are listed from the residue outwards. Peptide text beside a SMILES is read from it. * marks the point of attachment. C20 diacid = O=C(O)CCCCCCCCCCCCCCCCCCC(=O)*; γGlu = O=C(O)[C@H](CCC(=O)[*:2])N[*:1]; AEEA = NCCOCCOCC(=O)O
Experiments:
[1] = molecular target: T1, human calcitonin receptor (Homo sapiens, UniProt P30988); test: Assay (II)a functional assay, human calcitonin receptor (CRE luciferase, BHK cells);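 note: luminescence from a CRE-driven luciferase reporter, read by single photon counting after cells were exposed to test samples for 3 h at 37 °C under 5% CO2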; format: cell-based; settings: read-out: hCTR funct. EC50
T1 construct: expressed in transfected cells
T1 sequence (P30988 25-474): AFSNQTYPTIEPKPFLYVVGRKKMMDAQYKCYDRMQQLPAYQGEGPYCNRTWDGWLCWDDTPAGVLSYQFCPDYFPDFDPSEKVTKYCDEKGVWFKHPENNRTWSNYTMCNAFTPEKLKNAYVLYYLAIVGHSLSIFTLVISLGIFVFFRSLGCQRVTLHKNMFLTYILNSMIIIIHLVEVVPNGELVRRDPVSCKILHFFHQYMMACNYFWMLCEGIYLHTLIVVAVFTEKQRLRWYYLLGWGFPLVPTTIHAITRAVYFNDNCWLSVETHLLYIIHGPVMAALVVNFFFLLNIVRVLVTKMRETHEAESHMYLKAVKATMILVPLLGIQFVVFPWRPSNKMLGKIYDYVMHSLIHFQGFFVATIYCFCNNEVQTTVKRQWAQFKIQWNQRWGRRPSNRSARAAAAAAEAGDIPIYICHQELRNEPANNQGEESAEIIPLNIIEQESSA

[2] = molecular target: T1, human calcitonin receptor; test: Assay (VII) binding to the human calcitonin receptor (SPA, 125I-Calcitonin); settings: read-out: hCTR bind IC50;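 note: cell membranes coupled to SPA beads, competitive displacement read by scintillation counting, IC50 derived from a one-site competition fit as a measure of receptor affinity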
[3] = molecular target: T2, human amylin receptor (Homo sapiens, UniProt O60896+P30988); test: Assay (V) binding to the human amylin receptor (SPA, 125I-rat amylin); settings: human amylin receptor membranes, SPA; read-out: hAmylin-R bind IC50
T2 construct: expressed in transfected cells
T2 sequence (P30988 25-474): T1 sequence (P30988 25-474)
T2 sequence (O60896 24-148 partner): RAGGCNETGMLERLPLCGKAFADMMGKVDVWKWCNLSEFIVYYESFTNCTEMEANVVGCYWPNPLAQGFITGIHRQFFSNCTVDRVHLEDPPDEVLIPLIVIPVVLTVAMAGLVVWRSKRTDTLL
Procedure, shortened: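 SPA competition binding on membranes from Amylin 3(a)/CRE-luc cells, 35 ng/μL membranes with 0.05 mg/well beads. Buffer 50 mM Hepes pH 7.4, 1 mM CaCl2, 5 mM MgCl2, 0.1% OA, 0.02% Tween20. IC50 from one-site competition fit as affinity measure.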

[4] = molecular target: T3, human amylin receptor (amylin 3(a) receptor: human calcitonin receptor + RAMP-3) (Homo sapiens, UniProt O60896+P30988); test: Assay (II)a functional assay, human amylin receptor (CRE luciferase, BHK cells); format: cell-based; settings: for EC50: read-out: hAmylin-R funct. EC50
T3 construct: expressed in transfected cells
T3 sequence (P30988 25-474): T1 sequence (P30988 25-474)
T3 sequence (O60896 24-148 partner): T2 sequence (O60896 24-148 partner)

[5] = Table 6, human functional selectivity (hCTR EC50 / hAmylin-R EC50)
[6] = Table 6a, human functional selectivity (hCTR EC50 / hAmylin-R EC50), at least 5
[7] = Table 6j, hCTR funct. EC50 / hAmylin-R funct. EC50
[8] = Table 6j, human amylin receptor functional
[9] = Table 6k, hCTR funct. EC50 / hAmylin-R funct. EC50
[10] = functional assay, human amylin receptor

SMILES	EC50 [1]	IC50 [2]	IC50 [3]	Ratio hCT/hAmylin funct. [4, 5]	Ratio hCT/hAmylin funct. [4, 6]	Ratio hCT/hAmylin funct. [4, 7]	EC50 [4, 8]	Ratio hCT/hAmylin funct. [4, 9]	EC50 [4, 10]
CC[C@H](C)[C@H](NC(=O)[C@H](C)NC(=O)CNC(=O)[C@H](Cc1ccccc1)NC(=O)[C@H](CC(N)=O)NC(=O)[C@@H]1CCCN1C(=O)[C@H](CO)NC(=O)[C@H](CO)NC(=O)[C@H](Cc1c[nH]cn1)NC(=O)[C@H](CCCNC(=N)N)NC(=O)[C@H](CC(C)C)NC(=O)[C@H](Cc1ccccc1)NC(=O)[C@H](CC(N)=O)NC(=O)[C@H](C)NC(=O)[C@H](CC(C)C)NC(=O)[C@H](CCCNC(=N)N)NC(=O)[C@H](CCC(N)=O)NC(=O)[C@@H](NC(=O)[C@H](C)NC(=O)[C@@H]1CSSC[C@H](NC(=O)[C@@H](N)CCCCNC(=O)COCCOCCNC(=O)CC[C@H](NC(=O)CCCCCCCCCCCCCCCCCCC(=O)O)C(=O)O)C(=O)N[C@@H](CC(N)=O)C(=O)N[C@@H]([C@@H](C)O)C(=O)N[C@@H](C)C(=O)N[C@@H]([C@@H](C)O)C(=O)N1)[C@@H](C)O)C(=O)N1CCC[C@H]1C(=O)N[C@@H](CO)C(=O)N1CCC[C@H]1C(=O)N[C@H](C(=O)N[C@@H](CC(N)=O)C(=O)N[C@H](C(=O)NCC(=O)N1CCC[C@H]1C(=O)N[C@@H](CC(N)=O)C(=O)N[C@H](C(=O)N[C@@H](Cc1ccc(O)cc1)C(N)=O)[C@@H](C)O)C(C)C)[C@@H](C)O [Example 56] (H-K([AEEA-γGlu-C20 diacid])CNTATCATQRLANFLRHSSPNFGAIPSPTNVGPNTY-NH2; disulfide 2-7)	0.506 nM	2.09 nM	0.049 nM	5.0	5.0	5.0	0.102 nM	5.0	–
CC[C@H](C)[C@H](NC(=O)[C@H](C)NC(=O)CNC(=O)[C@H](Cc1ccccc1)NC(=O)[C@H](CC(N)=O)NC(=O)[C@@H]1CCCN1C(=O)[C@H](CO)NC(=O)[C@H](CO)NC(=O)[C@H](Cc1c[nH]cn1)NC(=O)[C@H](CCCNC(=N)N)NC(=O)[C@H](CC(C)C)NC(=O)[C@H](Cc1ccccc1)NC(=O)[C@H](CC(N)=O)NC(=O)[C@H](C)NC(=O)[C@H](CC(C)C)NC(=O)[C@H](CCCNC(=N)N)NC(=O)[C@H](CCC(N)=O)NC(=O)[C@@H](NC(=O)[C@H](C)NC(=O)[C@@H]1CSSC[C@H](NC(=O)[C@@H](N)CCCCNC(=O)CC[C@H](NC(=O)CCCCCCCCCCCCCCCCCCC(=O)O)C(=O)O)C(=O)N[C@@H](CC(N)=O)C(=O)N[C@@H]([C@@H](C)O)C(=O)N[C@@H](C)C(=O)N[C@@H]([C@@H](C)O)C(=O)N1)[C@@H](C)O)C(=O)N1CCC[C@H]1C(=O)N[C@@H](CO)C(=O)N[C@@H](CO)C(=O)N[C@H](C(=O)N[C@@H](CC(N)=O)C(=O)N[C@H](C(=O)NCC(=O)N[C@@H](CO)C(=O)N[C@@H](Cc1c[nH]cn1)C(=O)N[C@H](C(=O)N[C@@H](Cc1ccc(O)cc1)C(N)=O)[C@@H](C)O)C(C)C)[C@@H](C)O [Example 60]	5.36 nM	31.4 nM	0.695 nM	–	–	–	–	–	0.351 nM
CC[C@H](C)[C@H](NC(=O)[C@H](C)NC(=O)CNC(=O)[C@H](Cc1ccccc1)NC(=O)[C@H](CC(N)=O)NC(=O)[C@@H]1CCCN1C(=O)[C@H](CO)NC(=O)[C@H](CO)NC(=O)[C@H](Cc1c[nH]cn1)NC(=O)[C@H](CCCNC(=N)N)NC(=O)[C@H](CC(C)C)NC(=O)[C@H](Cc1ccccc1)NC(=O)[C@H](Cc1c[nH]cn1)NC(=O)[C@H](C)NC(=O)[C@H](CC(C)C)NC(=O)[C@H](CCCNC(=N)N)NC(=O)[C@H](CCC(N)=O)NC(=O)[C@@H](NC(=O)[C@H](C)NC(=O)[C@@H]1CSSC[C@H](NC(=O)[C@@H](N)CCCCNC(=O)COCCOCCNC(=O)CC[C@H](NC(=O)CCCCCCCCCCCCCCCCCCC(=O)O)C(=O)O)C(=O)N[C@@H](CC(N)=O)C(=O)N[C@@H]([C@@H](C)O)C(=O)N[C@@H](C)C(=O)N[C@@H]([C@@H](C)O)C(=O)N1)[C@@H](C)O)C(=O)N1CCC[C@H]1C(=O)N[C@@H](CO)C(=O)N[C@@H](CO)C(=O)N[C@H](C(=O)N1CCC[C@H]1C(=O)N[C@H](C(=O)NCC(=O)N[C@@H](CO)C(=O)N[C@@H](CC(N)=O)C(=O)N[C@H](C(=O)N[C@@H](Cc1ccc(O)cc1)C(N)=O)[C@@H](C)O)C(C)C)[C@@H](C)O [Example 61] (H-K([AEEA-γGlu-C20 diacid])CNTATCATQRLAHFLRHSSPNFGAIPSSTPVGSNTY-NH2; disulfide 2-7)	0.554 nM	8.11 nM	0.122 nM	–	–	–	–	–	0.051 nM
CC[C@H](C)[C@H](NC(=O)[C@H](C)NC(=O)CNC(=O)[C@H](Cc1ccccc1)NC(=O)[C@H](CC(N)=O)NC(=O)[C@@H]1CCCN1C(=O)[C@H](CO)NC(=O)[C@H](CO)NC(=O)[C@H](Cc1c[nH]cn1)NC(=O)[C@H](CCCNC(=N)N)NC(=O)[C@H](CC(C)C)NC(=O)[C@H](Cc1ccccc1)NC(=O)[C@H](CCCNC(=N)N)NC(=O)[C@H](C)NC(=O)[C@H](CC(C)C)NC(=O)[C@H](CCCNC(=N)N)NC(=O)[C@H](CCC(N)=O)NC(=O)[C@@H](NC(=O)[C@H](C)NC(=O)[C@@H]1CSSC[C@H](NC(=O)[C@@H](N)CCCCNC(=O)CC[C@H](NC(=O)CCCCCCCCCCCCCCCCCCC(=O)O)C(=O)O)C(=O)N[C@@H](CC(N)=O)C(=O)N[C@@H]([C@@H](C)O)C(=O)N[C@@H](C)C(=O)N[C@@H]([C@@H](C)O)C(=O)N1)[C@@H](C)O)C(=O)N1CCC[C@H]1C(=O)N[C@@H](CO)C(=O)N[C@@H](CO)C(=O)N[C@H](C(=O)N1CCC[C@H]1C(=O)N[C@H](C(=O)NCC(=O)N[C@@H](CO)C(=O)N[C@@H](CC(N)=O)C(=O)N[C@H](C(=O)N[C@@H](Cc1ccc(O)cc1)C(N)=O)[C@@H](C)O)C(C)C)[C@@H](C)O [Example 63] (H-K([γGlu-C20 diacid])CNTATCATQRLARFLRHSSPNFGAIPSSTPVGSNTY-NH2; disulfide 2-7)	5.13 nM	130 nM	0.825 nM	–	–	–	–	–	0.037 nM
CC[C@H](C)[C@H](NC(=O)[C@H](C)NC(=O)CNC(=O)[C@H](Cc1ccccc1)NC(=O)[C@H](CC(N)=O)NC(=O)[C@@H]1CCCN1C(=O)[C@H](CO)NC(=O)[C@H](CO)NC(=O)[C@H](Cc1c[nH]cn1)NC(=O)[C@H](CCCNC(=N)N)NC(=O)[C@H](CC(C)C)NC(=O)[C@H](Cc1ccccc1)NC(=O)[C@H](Cc1c[nH]cn1)NC(=O)[C@H](C)NC(=O)[C@H](CC(C)C)NC(=O)[C@H](CCCNC(=N)N)NC(=O)[C@H](CCC(N)=O)NC(=O)[C@@H](NC(=O)[C@H](C)NC(=O)[C@@H]1CSSC[C@H](NC(=O)[C@@H](N)CCCCNC(=O)CC[C@H](NC(=O)CCCCCCCCCCCCCCCCCCC(=O)O)C(=O)O)C(=O)N[C@@H](CC(N)=O)C(=O)N[C@@H]([C@@H](C)O)C(=O)N[C@@H](C)C(=O)N[C@@H]([C@@H](C)O)C(=O)N1)[C@@H](C)O)C(=O)N1CCC[C@H]1C(=O)N[C@@H](CO)C(=O)N[C@@H](CO)C(=O)N[C@H](C(=O)N[C@@H](CC(N)=O)C(=O)N[C@H](C(=O)NCC(=O)N1CCC[C@H]1C(=O)N[C@@H](CC(N)=O)C(=O)N[C@H](C(=O)N[C@@H](Cc1ccc(O)cc1)C(N)=O)[C@@H](C)O)C(C)C)[C@@H](C)O [Example 67] (H-K([γGlu-C20 diacid])CNTATCATQRLAHFLRHSSPNFGAIPSSTNVGPNTY-NH2; disulfide 2-7)	0.354 nM	4.63 nM	0.09 nM	5.2	5.2	5.2	0.069 nM	5.2	–

Reference: patent US8575091B1, “Amylin analogues and pharmaceutical compositions thereof” (Novo Nordisk A/S, priority 2012, dated 2013)
